Data on 3 compounds can be found in ChEMBL document CHEMBL4699499, “Biochemical, cellular and structural characterization of novel and selective ERK3 inhibitors” (Bioorg Med Chem Lett, 2020).

A value given as a limit tells only on which side of the number the result lay.

The target of assay [1] is T1, Mitogen-activated protein kinase 6 (Homo sapiens, UniProt Q16659). The assay can be described thus: Binding affinity to LPP-dephosphorylated recombinant wild-type ERK3 (9 to 327 residues) (unknown origin) expressed in Escherichia coli by microscale thermophoresis assay. Background: In MST a laser heats a spot of the sample, and binding alters the fluorescence response.
T1 sequence (Q16659 whole entry, the tested form may be a part): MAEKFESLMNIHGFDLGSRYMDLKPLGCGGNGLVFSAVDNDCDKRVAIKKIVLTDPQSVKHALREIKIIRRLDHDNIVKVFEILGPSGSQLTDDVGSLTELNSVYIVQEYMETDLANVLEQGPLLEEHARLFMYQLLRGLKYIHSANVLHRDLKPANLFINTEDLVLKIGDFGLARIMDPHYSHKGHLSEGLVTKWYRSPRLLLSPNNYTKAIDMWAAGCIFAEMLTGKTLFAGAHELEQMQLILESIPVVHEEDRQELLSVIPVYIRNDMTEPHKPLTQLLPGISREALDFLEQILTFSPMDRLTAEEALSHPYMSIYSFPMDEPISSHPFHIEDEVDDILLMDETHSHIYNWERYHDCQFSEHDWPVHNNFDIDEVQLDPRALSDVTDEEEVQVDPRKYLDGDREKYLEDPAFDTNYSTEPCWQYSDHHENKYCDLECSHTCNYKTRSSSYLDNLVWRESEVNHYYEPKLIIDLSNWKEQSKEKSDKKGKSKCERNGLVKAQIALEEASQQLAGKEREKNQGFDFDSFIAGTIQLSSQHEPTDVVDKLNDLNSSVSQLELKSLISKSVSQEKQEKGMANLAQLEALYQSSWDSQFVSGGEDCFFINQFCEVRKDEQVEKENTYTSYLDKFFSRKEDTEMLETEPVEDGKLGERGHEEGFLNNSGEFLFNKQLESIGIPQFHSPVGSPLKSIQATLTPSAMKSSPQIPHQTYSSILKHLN

Assay [2] addresses T1, Mitogen-activated protein kinase 6. The assay can be described thus: Binding affinity to wild-type human partial length ERK3 (M1 to P413 residues) expressed in bacterial expression system by kinomescan method.
The target is the same in assay [3]. Briefly: Binding affinity to recombinant wild-type ERK3 (9 to 327 residues) (unknown origin) expressed in Escherichia coli by microscale thermophoresis assay.
The target is the same in assay [4]. The assay can be described thus: Binding affinity to recombinant wild-type ERK3 (9 to 327 residues) (unknown origin) expressed in Sf21 insect cells by microscale thermophoresis assay.

A word on the Kd: it is the constant that tells how readily two partners part at equilibrium. As to `Nc1n[nH]c2nnc(-c3c(-c4ccccc4)nn4ccccc34)cc12`, in assay [1], the Kd is over 10 µM.

Consider `COc1ccc(-n2nnc3cnc(N[C@H]4CC[C@H](C(N)=O)CC4)nc32)cc1`, for which the Kd in assay [2] was 0.98 µM; in assay [3], 1.3 µM; in assay [1] it was 1.5 µM; in assay [4] it was 1.1 µM.

`O=C(Nc1ccc2[nH]nc(-c3ccncc3)c2c1)[C@@H]1CCN(CC(=O)N2CCN(c3ccc(-c4ncccn4)cc3)CC2)C1`: the Kd in assay [3] was 14.3 µM.
